This is an account of results in publication PMC3955162 (Nature neuroscience, 2013).

Data set [1] addresses T1, ACR-23 (Caenorhabditis elegans, UniProt G5EG88).
T1 sequence (G5EG88 20-545): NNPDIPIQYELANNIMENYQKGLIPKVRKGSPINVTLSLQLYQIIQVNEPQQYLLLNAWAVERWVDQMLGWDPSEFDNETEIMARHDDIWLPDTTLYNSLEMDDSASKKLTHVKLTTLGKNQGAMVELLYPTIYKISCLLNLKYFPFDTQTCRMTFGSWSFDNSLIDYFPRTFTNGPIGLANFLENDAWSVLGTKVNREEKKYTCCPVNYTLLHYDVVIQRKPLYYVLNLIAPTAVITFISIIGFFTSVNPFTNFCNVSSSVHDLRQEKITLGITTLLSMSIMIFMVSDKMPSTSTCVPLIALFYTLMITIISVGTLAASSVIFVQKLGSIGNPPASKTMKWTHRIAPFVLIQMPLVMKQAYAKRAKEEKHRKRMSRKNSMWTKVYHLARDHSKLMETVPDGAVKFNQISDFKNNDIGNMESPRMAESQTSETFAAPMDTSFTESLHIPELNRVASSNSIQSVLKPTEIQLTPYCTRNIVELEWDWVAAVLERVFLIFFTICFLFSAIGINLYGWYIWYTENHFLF
Briefly: two-electrode voltage clamp in Xenopus oocytes expressing ACR-23. It is filed as cell-based. (In general: Two-electrode voltage clamp holds a large cell at a set potential and records current.)

A further data set deals with T2, ACR-23(I301N) (Caenorhabditis elegans, UniProt G5EG88, I301N).
T2 sequence (G5EG88 20-545 I301N): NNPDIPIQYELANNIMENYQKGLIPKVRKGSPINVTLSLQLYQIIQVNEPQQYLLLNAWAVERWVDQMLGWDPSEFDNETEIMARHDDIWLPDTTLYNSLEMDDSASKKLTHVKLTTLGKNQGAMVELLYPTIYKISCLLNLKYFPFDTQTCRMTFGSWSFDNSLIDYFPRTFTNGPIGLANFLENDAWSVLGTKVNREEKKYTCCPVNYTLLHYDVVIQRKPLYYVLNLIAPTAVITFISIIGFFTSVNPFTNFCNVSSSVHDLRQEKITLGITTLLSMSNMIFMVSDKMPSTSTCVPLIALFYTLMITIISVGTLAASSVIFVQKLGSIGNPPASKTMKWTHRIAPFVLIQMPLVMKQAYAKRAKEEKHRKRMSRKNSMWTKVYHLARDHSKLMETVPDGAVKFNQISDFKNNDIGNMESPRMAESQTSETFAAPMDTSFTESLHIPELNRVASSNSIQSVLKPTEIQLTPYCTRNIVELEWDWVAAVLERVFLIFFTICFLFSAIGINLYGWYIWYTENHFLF
Described as above. It is filed as cell-based.

The target of data set [2] is T1, ACR-23. As to the kind of experiment: two-electrode voltage clamp in Xenopus oocytes. The data set is classed as cell-based.
Substrate in data set [3]: C[N+](C)(C)CC(=O)O
Briefly: cells, lysate or membranes. The settings on record: Na+ and Cl−.

One may read the EC50 as the midpoint of the concentration-response curve. For the molecule `C[N+](C)(C)CC(=O)O` [betaine, N, N, N-trimethylglycine], the results for the EC50 at ACR-23 [1] and at ACR-23(I301N) were 1400 µM and 166 µM, respectively.

With `C[C@](C#N)(COc1cc(C#N)ccc1C(F)(F)F)NC(=O)c1ccc(SC(F)(F)F)cc1` [monepantel], the “two-electrode voltage clamp in Xenopus oocytes; potentiation of 1 mM betaine cur” value at ACR-23 [2] is recorded as 300 pM.

B1: SNF-3 (Caenorhabditis elegans) (protein)
chain: MGTSEHVPLPTDEAKAKELEQSQHSEEPDRGQWTGKFDFLMSMVAYAVGLGNVWRFPYLCYKNGGGSFLVVYMIFFCLAAVPIFLMEVTVGQYLQKGAMEMWLMCPLFRGVGIGNVVIAFMCIAYFCVIVAWAMFYMISSIAWVFPWETCNNYWNDATCVTGKENFTELARIKALVASAGGHTQTSVEQFWEKRVLHDTGDISEFGGIQWELFFIMAAAWLIVYFALWKGITQARKFVYFCALFPYVLIFILLIRGLTLEGAGTGIYFYLKPNATRLLDTAVWKDAGTQVFYSYGVGFGALIALGSHNKFNHNCFKDAITMCFINGCTSITAGFAVFSILGYMSHVAQKDISEIVKPGVGLAFLAYPEVASNLPMKQVFAVLFFLMITILGLDSQVCMMEGLFTALEDAFPILRKYKKQSLGIFCLFFFCIGIPMVTHSGSHWLTLFDAYGASGYALLFVVFFEVVGLAYGFGAHNIRKALHEMIGVTLPKGIEYVWKFCAPATSLVLFVFCVVYYHPVKYPDGKDFPFWANAFGWFLSSCSMVVIPGYAIYYLFFTNKHLTLKERVRKGLNLDGSFESPAKKNLVNNAEELKFIESSSQ
A word on the Km: it is the concentration of substrate that gives half-maximal velocity. On to B1, for which the Km in data set [3] is 320 ± 50 µM.
